Measurements published in PMC13415951 (Journal of Experimental Botany, 2026).

Tests used:
Heliothis zea larvae = test system: Heliothis zea larvae; parameters: method as in Dowd et al., 1989; conditions: ref Dowd et al., 1989; cited from earlier work
HvUGT13248 [1] = target: T1, HvUGT13248 (Hordeum vulgare subsp. vulgare, UniProt M0Y4P1); assay: biochemical; assay type: biochemical; parameters: made in house; host or cells: E. coli
T1 sequence (M0Y4P1 1-475): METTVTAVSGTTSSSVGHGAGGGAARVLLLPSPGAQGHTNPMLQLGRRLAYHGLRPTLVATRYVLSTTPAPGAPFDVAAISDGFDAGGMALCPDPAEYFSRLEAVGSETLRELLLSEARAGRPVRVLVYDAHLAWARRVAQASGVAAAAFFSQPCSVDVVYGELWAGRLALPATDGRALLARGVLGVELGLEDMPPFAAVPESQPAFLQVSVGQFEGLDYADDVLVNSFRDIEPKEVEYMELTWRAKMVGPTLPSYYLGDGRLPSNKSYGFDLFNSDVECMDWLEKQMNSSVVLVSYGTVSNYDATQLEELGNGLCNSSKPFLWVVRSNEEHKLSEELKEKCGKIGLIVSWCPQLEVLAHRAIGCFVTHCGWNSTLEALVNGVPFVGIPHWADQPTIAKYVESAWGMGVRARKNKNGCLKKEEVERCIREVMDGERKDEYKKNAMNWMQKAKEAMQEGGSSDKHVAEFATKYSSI

HvUGT13248 [2] = target: T1, HvUGT13248; assay: biochemical; conditions: read-out: Glucosylation rate of DON, percentage of the control
animal cells = test system: animal cells; parameters: method as in Gruber-Dorninger et al., 2017; conditions: in vitro assays; ref Gruber-Dorninger et al., 2017; cited from earlier work
BdUGT5g03300 [3] = target: T2, BdUGT5g03300 (Brachypodium distachyon, UniProt I1IW79); assay type: biochemical
T2 sequence (I1IW79 1-469): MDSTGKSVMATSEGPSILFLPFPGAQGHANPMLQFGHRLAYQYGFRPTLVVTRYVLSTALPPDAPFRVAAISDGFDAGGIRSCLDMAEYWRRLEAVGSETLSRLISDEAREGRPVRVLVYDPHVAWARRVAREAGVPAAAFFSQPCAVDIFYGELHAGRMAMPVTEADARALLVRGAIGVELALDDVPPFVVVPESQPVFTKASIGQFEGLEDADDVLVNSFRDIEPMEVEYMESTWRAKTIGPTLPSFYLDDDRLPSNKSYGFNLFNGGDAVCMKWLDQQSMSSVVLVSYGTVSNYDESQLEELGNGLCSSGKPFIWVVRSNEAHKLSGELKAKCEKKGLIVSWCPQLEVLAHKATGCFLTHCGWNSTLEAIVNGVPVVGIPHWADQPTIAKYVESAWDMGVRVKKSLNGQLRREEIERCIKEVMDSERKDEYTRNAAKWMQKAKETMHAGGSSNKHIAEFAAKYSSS

OsUGT79 Q202A = target: T3, OsUGT79 Q202A (Oryza sativa subsp. japonica, UniProt Q7XT97, Q202A); assay: biochemical; assay type: biochemical
T3 sequence (Q7XT97 1-466 Q202A): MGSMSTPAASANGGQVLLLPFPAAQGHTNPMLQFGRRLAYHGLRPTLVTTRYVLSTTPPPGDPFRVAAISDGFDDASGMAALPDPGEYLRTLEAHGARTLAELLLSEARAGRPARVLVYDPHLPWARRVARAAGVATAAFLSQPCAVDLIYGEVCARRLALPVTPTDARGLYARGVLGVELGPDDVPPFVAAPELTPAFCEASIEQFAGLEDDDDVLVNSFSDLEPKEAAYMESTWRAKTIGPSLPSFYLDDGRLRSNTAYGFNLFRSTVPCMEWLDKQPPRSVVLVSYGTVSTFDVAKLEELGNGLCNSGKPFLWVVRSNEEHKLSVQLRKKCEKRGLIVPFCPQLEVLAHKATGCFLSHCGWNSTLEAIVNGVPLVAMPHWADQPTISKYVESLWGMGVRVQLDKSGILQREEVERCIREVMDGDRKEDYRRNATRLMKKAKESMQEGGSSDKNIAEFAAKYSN

BdUGT5g03300 [4] = target: T2, BdUGT5g03300; assay: biochemical
piglets = test system: piglets; parameters: method as in Rotter et al., 1992; conditions: ref Rotter et al., 1992; cited from earlier work
HvUGT13248 [5] = target: T1, HvUGT13248
[6] = test system: wheat cultivar Apogee seedlings; parameters: species or system Triticum aestivum; conditions: in vivo
[7] = test system: marine and terrestrial (human pathogenic) fungi; parameters: method as in Strongman et al., 1987; conditions: ref Strongman et al., 1987; cited from earlier work
[8] = read-out: Glucosylation rate of DON, percentage of the control

## CC1(C)CCC[C@]2(C)[C@@H]3[C@H]1[C@@H](O)[C@@]2(C)C[C@H]3O [CUL, culmorin]
Heliothis zea larvae
  Effect on growth of Heliothis zea larvae: no negative effects
  Effect on mortality of Heliothis zea larvae in combination with DON: significantly increases mortality
HvUGT13248 [1]
  Increase of apparent KM of DON: ~10 fold
  K iu of CUL (uncompetitive inhibition, UDP-glucose as variable substrate): 91 µM
  Ki: 56 µM
HvUGT13248 [2]
  remaining activity at 25 µM: 59 ± 6%
  remaining activity at 125 µM: 13%
Animal cells
  Toxicity to animal cells: low toxicity
BdUGT5g03300 [3]
  Increase of apparent KM with DON: ~50 fold
  K ic of CUL (competitive inhibition, DON as variable substrate): low µM range
  K iu of CUL (uncompetitive inhibition, UDP-glucose as variable substrate): 1.4 µM
BdUGT5g03300 [3]; read-out: K ic of CUL (competitive inhibition, DON as variable substrate)
  Ki: < 1 µM
BdUGT5g03300 [3]; read-out: KD of CUL at the acceptor binding site (implied by kinetics)
  Kd: ~1 µM
OsUGT79 Q202A
  K iu of CUL (uncompetitive inhibition, DON as variable substrate): 56 µM
  Ki: 16 µM
BdUGT5g03300 [4]
  Specific activity (glucoside formation): ≈ 1×10^−3 nmol min^−1 mg^−1
  Specific activity with CUL, fold below the value obtained with DON: ~1000 fold
BdUGT5g03300 [4]; 25 µM
  Glucosylation rate of DON, percentage of the control: 0.84±0.03%
BdUGT5g03300 [4]; [8]
  remaining activity at 25 µM: < 1%
  remaining activity at 125 µM: 0.19 ± 0.01%
piglets
  Effect on growth of piglets: no negative effects
HvUGT13248 [5]
  Specific activity (glucoside formation): 6.94 ± 0.52 nmol/min/mg
[6]
  Effect of CUL applied together with DON on root length: significantly increased the degree of reduction of root length
  Effect on primary and total root length: did not cause a significant change
[7]
  Anti-fungal activity: Weak anti-fungal activity
